Assay results reported in ChEMBL document CHEMBL1201862, “PubChem BioAssay data set” (2004).
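Five concentrations, 48 hours, 96-well plates. GI50 marks 50% less growth.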 Calls of active or inactive are those of the source. Cut-off read from the data, not from the text of the source: active = GI50 up to about 1.1 µM and inactive = higher.

How the values were obtained:
Test in all cases: NCI-60 cell line screen, 48 h
[1] = tested on: OVCAR-8
[2] = tested on: T47D
[3] = tested on: SN12C
[4] = tested on: BT-549
[5] = tested on: COLO 205
[6] = tested on: TK-10
[7] = tested on: HOP-92
[8] = tested on: HOP-62
[9] = tested on: LOX IMVI
[10] = tested on: NCI-H460
[11] = tested on: A498
[12] = tested on: RXF 393
[13] = tested on: CCRF-CEM
[14] = tested on: M14
[15] = tested on: Hs-578T
[16] = tested on: HCT-15
[17] = tested on: IGROV-1
[18] = tested on: SK-MEL-28
[19] = tested on: DMS-273

| Structure (SMILES) | GI50 [1] | GI50 [2] | GI50 [3] | GI50 [4] | GI50 [5] | GI50 [6] | GI50 [7] | GI50 [8] | GI50 [9] | GI50 [10] | GI50 [11] | GI50 [12] | GI50 [13] | GI50 [14] | GI50 [15] | GI50 [16] [µM] | GI50 [17] | GI50 [18] | GI50 [19] |
| --- | --- | --- | --- | --- | --- | --- | --- | --- | --- | --- | --- | --- | --- | --- | --- | --- | --- | --- | --- |
| O=C(O)c1cnccc1-c1cc(=O)[nH]n1-c1ccccc1 | 52.8 µM (inactive) | 23.5 µM (inactive) | > 87.7 µM (inactive) | > 80.5 µM (inactive) | 16 µM (inactive) | > 100 µM (inactive) | > 53.2 µM (inactive) | 51.1 µM (inactive) | 6.76 µM (inactive) | 35 µM (inactive) | > 100 µM (inactive) | 98.6 µM (inactive) | 34.4 µM (inactive) | 10.8 µM (inactive) | > 91.8 µM (inactive) | 25.9 | > 21.3 µM (inactive) | > 43.4 µM (inactive) | – |
| Cc1cc(S(=O)(=O)Nc2nc(N)n[nH]2)c(SCC(=O)O)cc1Cl | > 10 µM (inactive) | > 10 µM (inactive) | > 10 µM (inactive) | > 10 µM (inactive) | > 10 µM (inactive) | > 10 µM (inactive) | > 10 µM (inactive) | > 10 µM (inactive) | > 10 µM (inactive) | > 10 µM (inactive) | > 10 µM (inactive) | > 10 µM (inactive) | > 10 µM (inactive) | > 10 µM (inactive) | > 10 µM (inactive) | > 10 | > 10 µM (inactive) | > 10 µM (inactive) | – |
| CC1(C)CC2C(=O)c3ccccc3NC2c2ccccc21 (configuration not stated) | 5.96 µM (inactive) | 4.51 µM (inactive) | 5.79 µM (inactive) | 10.8 µM (inactive) | 3.44 µM (inactive) | 12 µM (inactive) | > 24.6 µM (inactive) | 3.75 µM (inactive) | 4.76 µM (inactive) | 3.12 µM (inactive) | 6.21 µM (inactive) | 1.87 µM (inactive) | 4.34 µM (inactive) | 5.28 µM (inactive) | 2.87 µM (inactive) | 3.6 | 7.13 µM (inactive) | 5.51 µM (inactive) | – |
| CN(C)CCNc1ccc(C(=O)NCCCN(C)CCCNC(=O)c2ccc(NCCN(C)C)c3c(=O)c4ccccc4[nH]c23)c2[nH]c3ccccc3c(=O)c12 | 0.0272 µM (active) | 0.119 µM (active) | < 0.01 µM (active) | 0.144 µM (active) | 0.0163 µM (active) | 0.828 µM (active) | 0.0724 µM (active) | < 0.0291 µM (active) | < 0.01 µM (active) | < 0.0163 µM (active) | 0.105 µM (active) | 0.0809 µM (active) | < 0.01 µM (active) | 0.218 µM (active) | < 0.0347 µM (active) | 3.81 | < 0.01 µM (active) | 0.109 µM (active) | – |
| COc1ccc(/C=C/C(=O)Oc2ccccc2OC)cc1 | 26.5 µM (inactive) | 31.5 µM (inactive) | 13.9 µM (inactive) | 67 µM (inactive) | 7.26 µM (inactive) | > 81.8 µM (inactive) | > 48.2 µM (inactive) | 8 µM (inactive) | 29.9 µM (inactive) | > 100 µM (inactive) | > 100 µM (inactive) | > 51.5 µM (inactive) | 0.336 µM (active) | 30.6 µM (inactive) | 41.7 µM (inactive) | 3.27 | 5.2 µM (inactive) | 73.5 µM (inactive) | – |
| Cc1n[n+]([O-])c(C)cc1[N+](=O)[O-] | 15.5 µM (inactive) | 17.4 µM (inactive) | 14.9 µM (inactive) | 24.7 µM (inactive) | 13.5 µM (inactive) | 8.67 µM (inactive) | 16.8 µM (inactive) | 19.5 µM (inactive) | 20.9 µM (inactive) | 14 µM (inactive) | 18.1 µM (inactive) | 25.2 µM (inactive) | 1.36 µM (inactive) | 15.7 µM (inactive) | 28.6 µM (inactive) | 15.9 | 21.8 µM (inactive) | 18 µM (inactive) | – |
| CCC1([N+](=O)[O-])CN(N=O)C1 | > 100 µM (inactive) | > 100 µM (inactive) | > 100 µM (inactive) | > 100 µM (inactive) | > 100 µM (inactive) | > 100 µM (inactive) | 34.4 µM (inactive) | > 100 µM (inactive) | > 100 µM (inactive) | > 100 µM (inactive) | > 100 µM (inactive) | > 100 µM (inactive) | > 100 µM (inactive) | > 100 µM (inactive) | > 100 µM (inactive) | > 100 | > 100 µM (inactive) | > 100 µM (inactive) | – |
| CC(=O)O[C@@]1(C)[C@@H](C)C(=O)O[C@@H]2CCN3CC=C(COC(=O)[C@]1(C)O)[C@H]23 | > 100 µM (inactive) | – | – | – | > 100 µM (inactive) | > 100 µM (inactive) | > 100 µM (inactive) | > 100 µM (inactive) | – | > 100 µM (inactive) | – | – | > 100 µM (inactive) | > 100 µM (inactive) | – | > 100 | > 100 µM (inactive) | > 100 µM (inactive) | > 100 µM (inactive) |
| CC1(C)C(=O)N(O)C(C)(C)N1O | > 10 µM (inactive) | > 10 µM (inactive) | > 10 µM (inactive) | > 10 µM (inactive) | > 10 µM (inactive) | > 10 µM (inactive) | > 10 µM (inactive) | > 10 µM (inactive) | > 10 µM (inactive) | > 10 µM (inactive) | > 10 µM (inactive) | > 10 µM (inactive) | > 10 µM (inactive) | > 10 µM (inactive) | > 10 µM (inactive) | > 10 | > 10 µM (inactive) | > 10 µM (inactive) | – |
| C[N+](C)(CCNC(=O)c1cccc2cc3ccccc3nc12)Cc1ccc([N+](=O)[O-])cc1 | > 100 µM (inactive) | > 100 µM (inactive) | > 100 µM (inactive) | > 100 µM (inactive) | > 100 µM (inactive) | > 100 µM (inactive) | > 100 µM (inactive) | > 100 µM (inactive) | > 100 µM (inactive) | > 100 µM (inactive) | > 100 µM (inactive) | > 100 µM (inactive) | > 100 µM (inactive) | > 100 µM (inactive) | > 100 µM (inactive) | > 100 | > 100 µM (inactive) | > 100 µM (inactive) | – |
| CNC(=O)Nc1cc2c3c(c1)CCCN3CCC2 | > 10 µM (inactive) | > 10 µM (inactive) | > 10 µM (inactive) | > 10 µM (inactive) | > 10 µM (inactive) | > 10 µM (inactive) | > 10 µM (inactive) | > 10 µM (inactive) | > 10 µM (inactive) | > 10 µM (inactive) | > 10 µM (inactive) | > 10 µM (inactive) | > 10 µM (inactive) | > 10 µM (inactive) | > 10 µM (inactive) | > 10 | > 10 µM (inactive) | > 10 µM (inactive) | – |
| NC(=O)c1cccc(/N=c2\oc3ccc(Br)cc3cc2-c2nc3ccccc3[nH]2)c1 | 7.62 µM (inactive) | 10 µM (inactive) | 17.4 µM (inactive) | 13.6 µM (inactive) | 14.6 µM (inactive) | 17 µM (inactive) | 19 µM (inactive) | 16.2 µM (inactive) | 16.1 µM (inactive) | 15.5 µM (inactive) | 18.4 µM (inactive) | 22 µM (inactive) | 2.61 µM (inactive) | 15.7 µM (inactive) | 27.4 µM (inactive) | 12.7 | 17.9 µM (inactive) | > 100 µM (inactive) | – |
| Cc1nc(O)nc2nc3ccc(Cl)cc3c(N(CCO)CCO)c12 | > 100 µM (inactive) | > 100 µM (inactive) | > 100 µM (inactive) | > 100 µM (inactive) | > 100 µM (inactive) | > 100 µM (inactive) | > 100 µM (inactive) | > 100 µM (inactive) | > 100 µM (inactive) | 48.2 µM (inactive) | > 100 µM (inactive) | 73.6 µM (inactive) | > 100 µM (inactive) | > 100 µM (inactive) | 10.7 µM (inactive) | 94.4 | > 100 µM (inactive) | > 100 µM (inactive) | – |
| CN(C)c1cc2ccccc2oc1=O | > 100 µM (inactive) | > 100 µM (inactive) | > 100 µM (inactive) | > 100 µM (inactive) | > 100 µM (inactive) | > 100 µM (inactive) | > 100 µM (inactive) | > 100 µM (inactive) | > 100 µM (inactive) | > 100 µM (inactive) | > 100 µM (inactive) | 20.6 µM (inactive) | > 100 µM (inactive) | > 100 µM (inactive) | > 100 µM (inactive) | > 100 | > 100 µM (inactive) | > 100 µM (inactive) | – |
| CN(C)CCNc1ccc2c(=O)n(CCN(C)C)c(=O)n3c4ccc([N+](=O)[O-])cc4c(=O)c1c23 | 0.248 µM (active) | 0.653 µM (active) | 0.197 µM (active) | 0.655 µM (active) | 0.179 µM (active) | 1.09 µM (active) | 0.201 µM (active) | 0.384 µM (active) | 0.178 µM (active) | 0.0838 µM (active) | 1.41 µM (inactive) | 0.198 µM (active) | 0.0382 µM (active) | 1 µM (active) | 1.01 µM (active) | 0.0966 | 0.126 µM (active) | 1.04 µM (active) | – |
| CC(C)(C)c1ccc(-c2nc3ccccc3c(=O)o2)cc1 | 47.4 µM (inactive) | 39.8 µM (inactive) | 34.3 µM (inactive) | 24.2 µM (inactive) | 30.6 µM (inactive) | 70.1 µM (inactive) | 28 µM (inactive) | 31.8 µM (inactive) | 18.7 µM (inactive) | 33.3 µM (inactive) | 71.6 µM (inactive) | 95.9 µM (inactive) | 19.3 µM (inactive) | 42.3 µM (inactive) | 68.7 µM (inactive) | 37.5 | 37.3 µM (inactive) | 42.5 µM (inactive) | – |
